Measured values: the NIST ThermoML archive (doi:10.1021/acs.jced.5b00105)
Numbers after ± are expanded uncertainties.

Assay: xn = mol fraction of the nth substance listed
Conditions: for surface tension liquid-gas: Drop volume; for viscosity / mass density: 100 kPa, Liquid; for viscosity: Concentric cylinders viscometry; for mass density: Vibrating tube method

CC1CCCCC1 [methylcyclohexane] + CC(C)CC(C)(C)C
Conditions	mass density [kg/m3]	surface tension liquid-gas [mN/m]	viscosity [mPa·s]
293.15 K, x1 = 0.0999	–	19.34 ± 0.24	–
293.15 K, x1 = 0.1012	698.32 ± 0.19	–	0.532 ± 0.085
293.15 K, x1 = 0.1999	–	19.77 ± 0.24	–
293.15 K, x1 = 0.2003	704.87 ± 0.18	–	0.546 ± 0.088
293.15 K, x1 = 0.2997	–	20.13 ± 0.24	–
293.15 K, x1 = 0.3001	711.73 ± 0.18	–	0.562 ± 0.09
293.15 K, x1 = 0.4	–	20.54 ± 0.24	–
293.15 K, x1 = 0.4019	719.01 ± 0.17	–	0.58 ± 0.093
293.15 K, x1 = 0.5	–	20.99 ± 0.24	–
293.15 K, x1 = 0.5008	726.4 ± 0.17	–	0.599 ± 0.096
293.15 K, x1 = 0.6	734.15 ± 0.17	21.52 ± 0.24	0.62 ± 0.099
293.15 K, x1 = 0.6998	742.32 ± 0.16	–	0.644 ± 0.1
293.15 K, x1 = 0.7001	–	22.1 ± 0.24	–
293.15 K, x1 = 0.7999	–	22.64 ± 0.24	–
293.15 K, x1 = 0.8	750.91 ± 0.16	–	0.671 ± 0.11
293.15 K, x1 = 0.9	759.88 ± 0.16	23.29 ± 0.24	0.701 ± 0.11
293.15 K, x1 = 1	769.35 ± 0.15	23.87 ± 0.24	0.735 ± 0.12
298.15 K, x1 = 0.0999	–	18.75 ± 0.24	–
298.15 K, x1 = 0.1012	694.22 ± 0.19	–	0.506 ± 0.081
298.15 K, x1 = 0.1999	–	19.1 ± 0.24	–
298.15 K, x1 = 0.2003	700.73 ± 0.18	–	0.519 ± 0.083
298.15 K, x1 = 0.2997	–	19.44 ± 0.24	–
298.15 K, x1 = 0.3001	707.58 ± 0.18	–	0.533 ± 0.085
298.15 K, x1 = 0.4	–	19.84 ± 0.24	–
298.15 K, x1 = 0.4019	714.85 ± 0.17	–	0.549 ± 0.088
298.15 K, x1 = 0.5	–	20.2 ± 0.24	–
298.15 K, x1 = 0.5008	722.23 ± 0.17	–	0.566 ± 0.091
298.15 K, x1 = 0.6	729.96 ± 0.17	20.69 ± 0.24	0.585 ± 0.094
298.15 K, x1 = 0.6998	738.11 ± 0.16	–	0.606 ± 0.097
298.15 K, x1 = 0.7001	–	21.26 ± 0.24	–
298.15 K, x1 = 0.7999	–	21.81 ± 0.24	–
298.15 K, x1 = 0.8	746.67 ± 0.16	–	0.631 ± 0.1
298.15 K, x1 = 0.9	755.61 ± 0.16	22.41 ± 0.24	0.66 ± 0.11
298.15 K, x1 = 1	765.05 ± 0.15	23.02 ± 0.24	0.692 ± 0.11
303.15 K, x1 = 0.0999	–	18.32 ± 0.24	–
303.15 K, x1 = 0.1012	690.06 ± 0.19	–	0.482 ± 0.077
303.15 K, x1 = 0.1999	–	18.62 ± 0.23	–
303.15 K, x1 = 0.2003	696.57 ± 0.18	–	0.494 ± 0.079
303.15 K, x1 = 0.2997	–	18.99 ± 0.23	–
303.15 K, x1 = 0.3001	703.4 ± 0.18	–	0.507 ± 0.081
303.15 K, x1 = 0.4	–	19.38 ± 0.23	–
303.15 K, x1 = 0.4019	710.66 ± 0.18	–	0.521 ± 0.084
303.15 K, x1 = 0.5	–	19.73 ± 0.23	–
303.15 K, x1 = 0.5008	718.01 ± 0.17	–	0.537 ± 0.086
303.15 K, x1 = 0.6	725.72 ± 0.17	20.21 ± 0.24	0.554 ± 0.089
303.15 K, x1 = 0.6998	733.85 ± 0.16	–	0.573 ± 0.092
303.15 K, x1 = 0.7001	–	20.72 ± 0.24	–
303.15 K, x1 = 0.7999	–	21.32 ± 0.24	–
303.15 K, x1 = 0.8	742.38 ± 0.16	–	0.595 ± 0.095
303.15 K, x1 = 0.9	751.3 ± 0.16	21.92 ± 0.24	0.621 ± 0.1
303.15 K, x1 = 1	760.71 ± 0.15	22.55 ± 0.24	0.651 ± 0.1
308.15 K, x1 = 0.0999	–	17.84 ± 0.23	–
308.15 K, x1 = 0.1012	685.89 ± 0.19	–	0.46 ± 0.074
308.15 K, x1 = 0.1999	–	18.12 ± 0.23	–
308.15 K, x1 = 0.2003	692.38 ± 0.18	–	0.471 ± 0.076
308.15 K, x1 = 0.2997	–	18.43 ± 0.23	–
308.15 K, x1 = 0.3001	699.2 ± 0.18	–	0.483 ± 0.077
308.15 K, x1 = 0.4	–	18.8 ± 0.23	–
308.15 K, x1 = 0.4019	706.44 ± 0.18	–	0.496 ± 0.08
308.15 K, x1 = 0.5	–	19.19 ± 0.23	–
308.15 K, x1 = 0.5008	713.78 ± 0.17	–	0.51 ± 0.082
308.15 K, x1 = 0.6	721.47 ± 0.17	19.64 ± 0.23	0.525 ± 0.084
308.15 K, x1 = 0.6998	729.57 ± 0.17	–	0.543 ± 0.087
308.15 K, x1 = 0.7001	–	20.23 ± 0.23	–
308.15 K, x1 = 0.7999	–	20.75 ± 0.24	–
308.15 K, x1 = 0.8	738.08 ± 0.16	–	0.564 ± 0.09
308.15 K, x1 = 0.9	746.98 ± 0.16	21.44 ± 0.24	0.587 ± 0.094
308.15 K, x1 = 1	756.37 ± 0.15	22.12 ± 0.24	0.615 ± 0.099
313.15 K, x1 = 0.1012	681.69 ± 0.19	–	0.44 ± 0.071
313.15 K, x1 = 0.2003	688.17 ± 0.19	–	0.45 ± 0.072
313.15 K, x1 = 0.3001	694.97 ± 0.18	–	0.461 ± 0.074
313.15 K, x1 = 0.4019	702.2 ± 0.18	–	0.473 ± 0.076
313.15 K, x1 = 0.5008	709.52 ± 0.17	–	0.486 ± 0.078
313.15 K, x1 = 0.6	717.19 ± 0.17	–	0.5 ± 0.08
313.15 K, x1 = 0.6998	725.27 ± 0.17	–	0.516 ± 0.083
313.15 K, x1 = 0.8	733.75 ± 0.16	–	0.535 ± 0.086
313.15 K, x1 = 0.9	742.63 ± 0.16	–	0.556 ± 0.089
313.15 K, x1 = 1	752 ± 0.16	–	0.58 ± 0.093
318.15 K, x1 = 0.1012	677.34 ± 0.19	–	0.422 ± 0.068
318.15 K, x1 = 0.2003	683.85 ± 0.19	–	0.432 ± 0.069
318.15 K, x1 = 0.3001	690.64 ± 0.18	–	0.443 ± 0.071
318.15 K, x1 = 0.4019	697.75 ± 0.18	–	0.453 ± 0.073
318.15 K, x1 = 0.5008	705.13 ± 0.17	–	0.465 ± 0.075
318.15 K, x1 = 0.6	712.85 ± 0.17	–	0.478 ± 0.077
318.15 K, x1 = 0.6998	720.93 ± 0.17	–	0.493 ± 0.079
318.15 K, x1 = 0.8	729.36 ± 0.16	–	0.509 ± 0.082
318.15 K, x1 = 0.9	738.24 ± 0.16	–	0.528 ± 0.085
318.15 K, x1 = 1	747.58 ± 0.16	–	0.549 ± 0.088
323.15 K, x1 = 0.1012	673.08 ± 0.19	–	0.406 ± 0.065
323.15 K, x1 = 0.2003	679.58 ± 0.19	–	0.415 ± 0.067
323.15 K, x1 = 0.3001	686.35 ± 0.18	–	0.426 ± 0.068
323.15 K, x1 = 0.4019	693.44 ± 0.18	–	0.435 ± 0.07
323.15 K, x1 = 0.5008	700.81 ± 0.18	–	0.446 ± 0.072
323.15 K, x1 = 0.6	708.52 ± 0.17	–	0.458 ± 0.073
323.15 K, x1 = 0.6998	716.59 ± 0.17	–	0.471 ± 0.076
323.15 K, x1 = 0.8	725.08 ± 0.17	–	0.486 ± 0.078
323.15 K, x1 = 0.9	733.86 ± 0.16	–	0.503 ± 0.081
323.15 K, x1 = 1	743.17 ± 0.16	–	0.522 ± 0.084
333.15 K, x1 = 0.1012	664.46 ± 0.19	–	0.378 ± 0.061
333.15 K, x1 = 0.2003	670.92 ± 0.19	–	0.386 ± 0.062
333.15 K, x1 = 0.3001	677.66 ± 0.19	–	0.395 ± 0.063
333.15 K, x1 = 0.4019	684.72 ± 0.18	–	0.402 ± 0.064
333.15 K, x1 = 0.5008	692.07 ± 0.18	–	0.411 ± 0.066
333.15 K, x1 = 0.6	699.74 ± 0.17	–	0.421 ± 0.068
333.15 K, x1 = 0.6998	707.79 ± 0.17	–	0.433 ± 0.069
333.15 K, x1 = 0.8	716.25 ± 0.17	–	0.445 ± 0.071
333.15 K, x1 = 0.9	725.03 ± 0.16	–	0.46 ± 0.074
333.15 K, x1 = 1	734.29 ± 0.16	–	0.476 ± 0.076
343.15 K, x1 = 0.1012	655.69 ± 0.2	–	0.355 ± 0.057
343.15 K, x1 = 0.2003	662.12 ± 0.19	–	0.361 ± 0.058
343.15 K, x1 = 0.3001	668.84 ± 0.19	–	0.368 ± 0.059
343.15 K, x1 = 0.4019	675.87 ± 0.18	–	0.375 ± 0.06
343.15 K, x1 = 0.5008	683.23 ± 0.18	–	0.383 ± 0.061
343.15 K, x1 = 0.6	690.9 ± 0.18	–	0.391 ± 0.063
343.15 K, x1 = 0.6998	698.9 ± 0.17	–	0.401 ± 0.064
343.15 K, x1 = 0.8	707.33 ± 0.17	–	0.411 ± 0.066
343.15 K, x1 = 0.9	716.08 ± 0.17	–	0.424 ± 0.068
343.15 K, x1 = 1	725.31 ± 0.16	–	0.439 ± 0.07
